Assay results: PubChem BioAssay AID1963849 (Molecular Pharmacology Branch, DTP, NCI, 2024)
pIC50: −log10 of the molar value.

Tested on: 299254-011-R-J1-PDC complex spheroid viability
Assay: Anticancer human tumor 299254-011-R-J1-PDC patient-derived melanoma cell line growth inhibition [POLQ]
Details: for pIC50: curve of first compound; for viability, T/C: stronger effect = lower value; active means viability on the fitted dose curve at most 10% of control; inactive means the rest
Experimental: Multicellular complex tumor spheroid response to Polymerase (POL) inhibitors (novobiocin, ART-558, RP6685) in combination with a variety of drugs and investigational agents in selected tumor cell lines
The POL inhibitors (novobiocin, ART-558, and RP6685) were evaluated both individually and in combination with standard of care and investigational anticancer small molecules within a complex spheroid model of solid tumors. . Complex spheroids include a stromal component modeled by human endothelial cells (HUVEC) and fibroblasts modeled by human mesenchymal stem cells (MSCs). The concentration ranges selected for each drug and investigational agent were based upon clinically achievable concentrations if the clinical Cmax of the agent was known.
Compounds. The drugs and investigational agents: novobiocin (NSC847541), ART-558 (NSC835418), RP-6685 (NSC848927), peposertib (NSC802822), ceralasertib (NSC780249), elimusertib (NSC800525), camonsertib (NSC841442), AZD-1390 (NSC803789), olaparib (NSC753686), talazoparib (NSC767125), rucaparib (NSC756644), sotorasib (NSC818433), MRTX-1133 (NSC836407), SN-38 (NSC673596), topotecan (NSC609699), epotoside (NSC141540), doxorubicin (NSC123127), gemcitabine (NSC613327), 5-fluorouracil (NSC19893), paclitaxel (NSC125973), vemurafenib (NSC761431), MSA-2 (NSC828583), SN-011 (NSC837082), adavosertib (NSC754352), prexasertib (NSC758257), carboplatin (NSC241240) and oxaliplatin (NSC266046), were obtained from the National Cancer Institute (NCI) Developmental Therapeutics Program Chemical Repository (21). The FDA-approved anticancer drug set is available from the Developmental Therapeutics Program at https://dtp.cancer.gov/organization/dscb/obtaining/. […] The stock solutions were prepared in dimethyl sulfoxide (DMSO, Sigma-Aldrich, St. Louis, MO, cat. D2650), except for the platinum compounds which were prepared in saline (Quality Biological, Gaithersburg, MD, cat. 114-055-101), at 800-fold the tested concentration and stored at -70 degrees C prior to their use. All drugs and investigational agents were tested over a range starting from a high concentration at or near the clinical Cmax and decreasing in half-log increments. If the clinical Cmax for an agent had not been determined, the highest concentration tested was 10 microM, except for SN-38, which was tested at a high concentration of 1 microM.
Cell Culture. All cells were maintained in an incubator at 37 degrees C and 5% CO2 with 95% humidity. The PDC lines were cultured according to standard operating procedures established by the NCI PDMR (https://pdmr.cancer.gov). Table 3 of the manuscript, lists the cell lines along with the number of the three cell types plated to form the mct-spheroids and media for tumor cell growth. After thawing, all PDC lines, except 997537-175-T-J1-PDC and 415267-285-R-J2-PDC, were cultured in Matrigel-coated flasks prepared with a working solution of 1X Ham's F-12 nutrient mix, without supplementation (Thermo Fisher Scientific, cat. 11765054), 100 U/mL penicillin-streptomycin (Thermo Fisher Scientific, cat. 15140122), and 2.5% Matrigel (Corning Inc., Corning, NY, cat. 354248) for the first three passages. The two PDC lines 997537-175-T-J1-PDC and 415267-285-R-J2-PDC were cultured on uncoated flasks. The 857933-349-R-J2-PDC line was cultured in 6C/Colon 1B media containing advanced DMEM/F-12 (Thermo Fisher Scientific, cat. 12634028), 10 mM HEPES (Thermo Fisher Scientific, cat. 15630080), 1X GlutaMAX supplement (Thermo Fisher Scientific, cat. 35050061), 0.1 mg/mL primocin (InvivoGen, San Diego, CA, cat. ant-pm-2), 10% defined fetal bovine serum, heat inactivated (HyClone Laboratories Inc., Logan, UT, cat. SH30070.03HI), 50% L-WRN conditioned media (ATCC, cat. CRL-3276), 1.25 mM N-Acetyl-L-cysteine (Sigma-Aldrich, cat. A9165), 10 mM nicotinamide (Sigma-Aldrich, cat. N0636), 1X B-27 supplement (Thermo Fisher Scientific, cat. 17504044), 1X N-2 supplement (Thermo Fisher Scientific, cat. […]

[1] = second compound 0.0316 µM, first compound 0.0316 µM
[2] = second compound 0.0316 µM, first compound 0.1 µM
[3] = second compound 0.1 µM, first compound 0.0316 µM
[4] = second compound 0.1 µM, first compound 0.1 µM
[5] = second compound 0.316 µM, first compound 0.0316 µM
[6] = second compound 0.316 µM, first compound 0.1 µM
[7] = second compound 1 µM, first compound 0.0316 µM
[8] = second compound 1 µM, first compound 0.1 µM
[9] = second compound 3.16 µM, first compound 0.0316 µM
[10] = second compound 3.16 µM, first compound 0.1 µM
[11] = second compound 10 µM, first compound 0.0316 µM
[12] = second compound 10 µM, first compound 0.1 µM
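Further: spheroids exposed to drugs for one week before measurement.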
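Wherever viability, T/C is given: percent viability relative to DMSO vehicle control taken as 100%.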

C#Cc1c(F)ccc2cc(O)cc(-c3ncc4c(N5CC6CCC(C5)N6)nc(OCC56CCCN5CC(F)C6)nc4c3F)c12 (centres undefined) + Cc1cccc(N(C)C(=O)C2C(O)CCN2c2nc(C)cc(C(F)(F)F)c2C#N)c1
< 5.00: pIC50 (second compound 0.0316 µM) | pIC50 (second compound 0.1 µM) | pIC50 (second compound 0.316 µM) | pIC50 (second compound 1 µM) | pIC50 (second compound 3.16 µM) | pIC50 (second compound 10 µM)
inactive: viability, T/C [1] 113% | viability, T/C [2] 102% | viability, T/C (second compound 0.0316 µM, first compound 0.316 µM) 123% | viability, T/C (second compound 0.0316 µM, first compound 1 µM) 120% | viability, T/C (second compound 0.0316 µM, first compound 3.16 µM) 124% | viability, T/C (second compound 0.0316 µM, first compound 10 µM) 93.9% | viability, T/C [3] 105% | viability, T/C [4] 122% | viability, T/C (second compound 0.1 µM, first compound 0.316 µM) 120% | viability, T/C (second compound 0.1 µM, first compound 1 µM) 125% | viability, T/C (second compound 0.1 µM, first compound 3.16 µM) 97.8% | viability, T/C (second compound 0.1 µM, first compound 10 µM) 85.5% | viability, T/C [5] 105% | viability, T/C [6] 108% | viability, T/C (second compound 0.316 µM, first compound 0.316 µM) 124% | viability, T/C (second compound 0.316 µM, first compound 1 µM) 99.2% | viability, T/C (second compound 0.316 µM, first compound 3.16 µM) 114% | viability, T/C (second compound 0.316 µM, first compound 10 µM) 75.5% | viability, T/C [7] 123% | viability, T/C [8] 109% | viability, T/C (second compound 1 µM, first compound 0.316 µM) 113% | viability, T/C (second compound 1 µM, first compound 1 µM) 113% | viability, T/C (second compound 1 µM, first compound 3.16 µM) 103% | viability, T/C (second compound 1 µM, first compound 10 µM) 74.6% | viability, T/C [9] 114% | viability, T/C [10] 99.9% | viability, T/C (second compound 3.16 µM, first compound 0.316 µM) 118% | viability, T/C (second compound 3.16 µM, first compound 1 µM) 111% | viability, T/C (second compound 3.16 µM, first compound 3.16 µM) 92% | viability, T/C (second compound 3.16 µM, first compound 10 µM) 78.1% | viability, T/C [11] 110% | viability, T/C [12] 108% | viability, T/C (second compound 10 µM, first compound 0.316 µM) 108% | viability, T/C (second compound 10 µM, first compound 1 µM) 105% | viability, T/C (second compound 10 µM, first compound 3.16 µM) 80.1% | viability, T/C (second compound 10 µM, first compound 10 µM) 64.2%

CC[C@@]1(O)C(=O)OCc2c1cc1n(c2=O)Cc2cc3c(CN(C)C)c(O)ccc3nc2-1 + Cc1cccc(N(C)C(=O)C2C(O)CCN2c2nc(C)cc(C(F)(F)F)c2C#N)c1
< 7.00: pIC50 (second compound 0.0316 µM) | pIC50 (second compound 0.1 µM) | pIC50 (second compound 0.316 µM) | pIC50 (second compound 1 µM) | pIC50 (second compound 3.16 µM) | pIC50 (second compound 10 µM)
inactive: viability, T/C (second compound 0.0316 µM, first compound 0.000316 µM) 101% | viability, T/C (second compound 0.0316 µM, first compound 0.001 µM) 100% | viability, T/C (second compound 0.0316 µM, first compound 0.00316 µM) 95.6% | viability, T/C (second compound 0.0316 µM, first compound 0.01 µM) 104% | viability, T/C [1] 117% | viability, T/C [2] 81% | viability, T/C (second compound 0.1 µM, first compound 0.000316 µM) 104% | viability, T/C (second compound 0.1 µM, first compound 0.001 µM) 98.6% | viability, T/C (second compound 0.1 µM, first compound 0.00316 µM) 97% | viability, T/C (second compound 0.1 µM, first compound 0.01 µM) 113% | viability, T/C [3] 113% | viability, T/C [4] 84.1% | viability, T/C (second compound 0.316 µM, first compound 0.000316 µM) 110% | viability, T/C (second compound 0.316 µM, first compound 0.001 µM) 115% | viability, T/C (second compound 0.316 µM, first compound 0.00316 µM) 103% | viability, T/C (second compound 0.316 µM, first compound 0.01 µM) 120% | viability, T/C [5] 116% | viability, T/C [6] 80.9% | viability, T/C (second compound 1 µM, first compound 0.000316 µM) 111% | viability, T/C (second compound 1 µM, first compound 0.001 µM) 112% | viability, T/C (second compound 1 µM, first compound 0.00316 µM) 100% | viability, T/C (second compound 1 µM, first compound 0.01 µM) 123% | viability, T/C [7] 99.2% | viability, T/C [8] 90.5% | viability, T/C (second compound 3.16 µM, first compound 0.000316 µM) 108% | viability, T/C (second compound 3.16 µM, first compound 0.001 µM) 115% | viability, T/C (second compound 3.16 µM, first compound 0.00316 µM) 89.1% | viability, T/C (second compound 3.16 µM, first compound 0.01 µM) 106% | viability, T/C [9] 119% | viability, T/C [10] 89.6% | viability, T/C (second compound 10 µM, first compound 0.000316 µM) 94.9% | viability, T/C (second compound 10 µM, first compound 0.001 µM) 102% | viability, T/C (second compound 10 µM, first compound 0.00316 µM) 90.8% | viability, T/C (second compound 10 µM, first compound 0.01 µM) 97% | viability, T/C [11] 95.3% | viability, T/C [12] 69.7%
